Source: patent publication US9303012B2, “Pyridine-2-amides useful as CB2 agonists” (Hoffmann-La Roche Inc., priority 2012, dated 2016)

Assays:
human CB2 receptors = human CB2 receptors (Homo sapiens (Human), UniProt P34972); assay: functional cAMP assay, CHO cells expressing human CB2 receptors; format: cell-based
Procedure, shortened: (§1)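 Compound exposure lasted 30 min at 30 °C in IBMX (1 mM)-containing Krebs Ringer bicarbonate buffer, applied to human CB1- or CB2-expressing CHO cells. Lysates were read by time-resolved FRET cAMP detection, converted via cAMP standard curve (10 μM–0.13 nM), and EC50 values calculated.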

human CB1 receptors = human CB1 receptors (Homo sapiens (Human), UniProt P21554); assay: functional cAMP assay, CHO cells expressing human CB1 receptors; format: cell-based
Procedure, shortened: as §1

human CB2 receptors, sequence (P34972 whole entry): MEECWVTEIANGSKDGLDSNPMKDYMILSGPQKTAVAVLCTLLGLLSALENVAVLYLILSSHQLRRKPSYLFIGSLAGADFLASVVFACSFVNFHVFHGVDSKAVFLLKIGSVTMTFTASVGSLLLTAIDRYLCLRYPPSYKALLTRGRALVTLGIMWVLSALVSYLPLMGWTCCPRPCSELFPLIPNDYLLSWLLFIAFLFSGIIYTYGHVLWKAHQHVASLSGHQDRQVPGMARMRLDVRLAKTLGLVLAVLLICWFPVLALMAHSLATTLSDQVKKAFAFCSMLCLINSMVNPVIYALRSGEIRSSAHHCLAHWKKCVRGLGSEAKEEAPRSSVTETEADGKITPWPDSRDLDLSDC
human CB1 receptors, sequence (P21554 whole entry): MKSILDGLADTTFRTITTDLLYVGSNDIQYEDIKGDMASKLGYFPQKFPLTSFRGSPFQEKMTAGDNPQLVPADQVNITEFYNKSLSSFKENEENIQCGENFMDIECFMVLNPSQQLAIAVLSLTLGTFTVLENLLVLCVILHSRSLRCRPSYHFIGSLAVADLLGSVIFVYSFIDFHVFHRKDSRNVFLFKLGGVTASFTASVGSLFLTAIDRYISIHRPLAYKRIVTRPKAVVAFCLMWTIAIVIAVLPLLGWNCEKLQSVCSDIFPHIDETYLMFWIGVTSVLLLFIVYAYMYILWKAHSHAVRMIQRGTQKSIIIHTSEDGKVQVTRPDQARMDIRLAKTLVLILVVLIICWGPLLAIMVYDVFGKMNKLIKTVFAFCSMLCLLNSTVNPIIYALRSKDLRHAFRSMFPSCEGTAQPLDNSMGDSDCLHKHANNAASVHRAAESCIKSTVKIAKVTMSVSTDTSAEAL

| SMILES | EC50 (human CB2 receptors) [µM] | EC50 (human CB1 receptors) [µM] |
| --- | --- | --- |
| COC1CN(c2ccc(C(=O)N3CS(=O)(=O)CC3C(N)=O)nc2OCC2CC2)C1 (centres unmarked) [Example 128, 3-[6-(Cyclopropylmethoxy)-5-(3-methoxyazetidin-1-yl)pyridine-2-carbonyl]-1,1-dioxo-1,3-thiazolidine-4-carboxamide] | 0.0302 | > 10 |
| NC(=O)[C@@H]1CC(F)(F)CN1C(=O)c1ccc(C2(O)CCC2)c(OCC2CC2)n1 [Example 129, (2S)-1-[6-(Cyclopropylmethoxy)-5-(1-hydroxycyclobutyl)pyridine-2-carbonyl]-4,4-difluoropyrrolidine-2-carboxamide] | 0.0758 | > 10 |
| NC(=O)[C@@H]1CC(F)(F)CN1C(=O)c1ccc(C2(F)CCC2)c(OCC2CC2)n1 [Example 130, (2S)-1-[6-(Cyclopropylmethoxy)-5-(1-fluorocyclobutyl)pyridine-2-carbonyl]-4,4-difluoropyrrolidine-2-carboxamide] | 0.0023 | > 10 |
| NC(=O)C1CS(=O)(=O)CN1C(=O)c1ccc(C2(O)CCC2)c(OCC2CC2)n1 (centres unmarked) [Example 131, 3-[6-(Cyclopropylmethoxy)-5-(1-hydroxycyclobutyl)pyridine-2-carbonyl]-1,1-dioxo-1,3-thiazolidine-4-carboxamide] | 0.0625 | > 10 |
| CC1(O)C[C@@H](C(N)=O)N(C(=O)c2ccc(N3CC(F)(F)C3)c(OCC3CC3)n2)C1 (stereo partly drawn) [Example 132, (2S)-1-[6-(Cyclopropylmethoxy)-5-(3,3-difluoroazetidin-1-yl)pyridine-2-carbonyl]-4-hydroxy-4-methylpyrrolidine-2-carboxamide] | 0.0301 | > 10 |
| NC(=O)C1CS(=O)(=O)CN1C(=O)c1ccc(C2(F)CCC2)c(OCC2CC2)n1 (centres unmarked) [Example 133, 3-[6-(Cyclopropylmethoxy)-5-(1-fluorocyclobutyl)pyridine-2-carbonyl]-1,1-dioxo-1,3-thiazolidine-4-carboxamide] | 0.0102 | > 10 |
| NC(=O)[C@@H]1CC(F)(F)CN1C(=O)c1ccc(C2(F)COC2)c(OCC2CC2)n1 [Example 134, (2S)-1-[6-(Cyclopropylmethoxy)-5-(3-fluorooxetan-3-yl)pyridine-2-carbonyl]-4,4-difluoropyrrolidine-2-carboxamide] | 0.0522 | > 10 |
| NC(=O)C1CC2(CC2)CN1C(=O)c1ccc(N2CC(F)(F)C2)c(OCC2CC2)n1 (centres unmarked) [Example 135, 5-[6-(Cyclopropylmethoxy)-5-(3,3-difluoroazetidin-1-yl)pyridine-2-carbonyl]-5-azaspiro[2.4]heptane-6-carboxamide] | 0.0156 | > 10 |
| O=C(c1ccc(N2CC(F)(F)C2)c(OCC2CC2)n1)N1CCC(C(O)C(F)(F)F)C1 (centres unmarked) [Example 136, [6-(Cyclopropylmethoxy)-5-(3,3-difluoroazetidin-1-yl)pyridin-2-yl]-[3-(2,2,2-trifluoro-1-hydroxyethyl)pyrrolidin-1-yl]methanone] | 0.0329 | > 10 |
| O=C(c1ccc(N2CC(F)(F)C2)c(OCC2CC2)n1)N1CCC(CO)(C(F)(F)F)C1 (centres unmarked) [Example 137, [6-(Cyclopropylmethoxy)-5-(3,3-difluoroazetidin-1-yl)pyridin-2-yl]-[3-(hydroxymethyl)-3-(trifluoromethyl)pyrrolidin-1-yl]methanone] | 0.0538 | > 10 |
| O=C(c1ccc(N2CC(F)(F)C2)c(OCC2CC2)n1)N1CCC(O)(C(F)(F)F)C1 (centres unmarked) [Example 138, [6-(Cyclopropylmethoxy)-5-(3,3-difluoroazetidin-1-yl)pyridin-2-yl]-[3-hydroxy-3-(trifluoromethyl)pyrrolidin-1-yl]methanone] | 0.0835 | > 10 |
| O=C(c1ccc(N2CC(F)(F)C2)c(OCC2CC2)n1)N1CC(O)(C(F)(F)F)C1 [Example 139, [6-(Cyclopropylmethoxy)-5-(3,3-difluoroazetidin-1-yl)pyridin-2-yl]-[3-hydroxy-3-(trifluoromethyl)azetidin-1-yl]methanone] | 0.042 | > 10 |
| C[C@]1(O)C[C@@H](C(N)=O)N(C(=O)c2ccc(N3CC(F)(F)C3)c(OCC3CC3)n2)C1 [Example 140, (+)-(2S)-1-[6-(Cyclopropylmethoxy)-5-(3,3-difluoroazetidin-1-yl)pyridine-2-carbonyl]-4-hydroxy-4-methylpyrrolidine-2-carboxamide] | 0.0406 | > 10 |
| O=C(c1ccc(C2CC2)c(OCC2CC2)n1)N1CCC(C(O)C(F)(F)F)C1 (centres unmarked) [Example 141, [5-Cyclopropyl-6-(cyclopropylmethoxy)pyridin-2-yl]-[3-(2,2,2-trifluoro-1-hydroxyethyl)pyrrolidin-1-yl]methanone] | 0.262 | > 10 |
| O=C(c1ccc(C2CC2)c(OCC2CC2)n1)N1CCC(CO)(C(F)(F)F)C1 (centres unmarked) [Example 142, [5-Cyclopropyl-6-(cyclopropylmethoxy)pyridin-2-yl]-[3-(hydroxymethyl)-3-(trifluoromethyl)pyrrolidin-1-yl]methanone] | 0.0263 | > 10 |
| O=C(c1ccc(C2CC2)c(OCC2CC2)n1)N1CCC(O)(C(F)(F)F)C1 (centres unmarked) [Example 143, [5-Cyclopropyl-6-(cyclopropylmethoxy)pyridin-2-yl]-[3-hydroxy-3-(trifluoromethyl)pyrrolidin-1-yl]methanone] | 0.0878 | > 10 |
| O=C(c1ccc(C2CC2)c(OCC2CC2)n1)N1CC(O)(C(F)(F)F)C1 [Example 144, [5-Cyclopropyl-6-(cyclopropylmethoxy)pyridin-2-yl]-[3-hydroxy-3-(trifluoromethyl)azetidin-1-yl]methanone] | 0.073 | > 10 |
| NC(=O)[C@@H]1CC2(CC2)CN1C(=O)c1ccc(N2CC(F)(F)C2)c(OCC2CC2)n1 [Example 145, (6S)-5-[6-(Cyclopropylmethoxy)-5-(3,3-difluoroazetidin-1-yl)pyridine-2-carbonyl]-5-azaspiro[2.4]heptane-6-carboxamide] | 0.356 | > 10 |
| O=C(c1ccc(N2CC(F)(F)C2)c(OCC2CC2)n1)N1C[C@H]2COC[C@H]2C1 [Example 146, [(3aR,6aS)-1,3,3a,4,6,6a-Hexahydrofuro[3,4-c]pyrrol-5-yl]-[6-(cyclopropylmethoxy)-5-(3,3-difluoroazetidin-1-yl)pyridin-2-yl]methanone] | 0.167 | > 10 |
| NC(=O)[C@@H]1CC(F)(F)CN1C(=O)c1ccc(N2CC(F)(F)C2)c(OCCF)n1 [Example 147, (2S)-1-[5-(3,3-Difluoroazetidin-1-yl)-6-(2-fluoroethoxyl)pyridine-2-carbonyl]-4,4-difluoro-pyrrolidine-2-carboxamide] | 1.17 | > 10 |
| O=C(c1ccc(N2CC(F)(F)C2)c(OCC2CC2)n1)N1CC(F)(CO)C1 [Example 148, [6-(Cyclopropylmethoxy)-5-(3,3-difluoroazetidin-1-yl)-2-pyridyl]-[3-fluoro-3-(hydroxymethyl)azetidin-1-yl]methanone] | 0.451 | > 10 |
| CC1(F)CN(C(=O)c2ccc(N3CC(F)(F)C3)c(OCC3CC3)n2)C1 [Example 149, [6-(Cyclopropylmethoxy)-5-(3,3-difluoroazetidin-1-yl)-2-pyridyl]-(3-fluoro-3-methyl-azetidin-1-yl)methanone] | 0.079 | > 10 |
| O=C(c1ccc(N2CC(F)(F)C2)c(OCC2CC2)n1)N1CC(F)(C2CC2)C1 [Example 150, (3-Cyclopropyl-3-fluoroazetidin-1-yl)-[6-(cyclopropylmethoxy)-5-(3,3-difluoroazetidin-1-yl)pyridin-2-yl]methanone] | 0.008 | > 10 |
| NC(=O)[C@@H]1N(C(=O)c2ccc(N3CC(F)(F)C3)c(OCC3CC3)n2)CCC12CC2 [Example 151, (−)-5-[6-(Cyclopropylmethoxy)-5-(3,3-difluoroazetidin-1-yl)pyridine-2-carbonyl]-5-azaspiro[2.4]heptane-4-carboxamide] | 0.818 | > 10 |
| NC(=O)[C@H]1N(C(=O)c2ccc(N3CC(F)(F)C3)c(OCC3CC3)n2)CCC12CC2 [Example 152, (+)-5-[6-(Cyclopropylmethoxy)-5-(3,3-difluoroazetidin-1-yl)pyridine-2-carbonyl]-5-azaspiro[2.4]heptane-4-carboxamide] | 0.338 | > 10 |
